Inhibition and IC50 data for nine molecules are collected here from publication PMC6695594, “Discovery of (5-Phenylfuran-2-yl)methanamine Derivatives as New Human Sirtuin 2 Inhibitors” (Molecules, 2019).

Test [1] deals with T1, human sirtuin 2 (SIRT2) (Homo sapiens, UniProt Q8IXJ6).
T1 sequence (Q8IXJ6 2-389): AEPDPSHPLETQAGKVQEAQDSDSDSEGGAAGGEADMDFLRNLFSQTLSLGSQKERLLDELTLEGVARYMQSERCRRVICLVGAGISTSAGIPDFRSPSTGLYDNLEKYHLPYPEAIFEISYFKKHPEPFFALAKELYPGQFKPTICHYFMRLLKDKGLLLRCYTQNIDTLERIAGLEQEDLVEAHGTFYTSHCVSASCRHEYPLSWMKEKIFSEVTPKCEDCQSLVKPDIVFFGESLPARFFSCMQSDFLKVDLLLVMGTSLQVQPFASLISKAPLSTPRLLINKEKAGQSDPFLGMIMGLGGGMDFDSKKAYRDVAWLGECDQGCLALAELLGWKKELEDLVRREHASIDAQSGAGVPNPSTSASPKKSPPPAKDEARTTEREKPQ
In words: biochemical. Details: Fluorogenic p2270 (Ac-Glu-Thr-Asp-Lys(Dec)-AMC) trypsin-coupled assay on recombinant human SIRT2, ex 380/em 460 nm. To be noted: for inhibition at 10 µM: read-out: Inhibition% ^1/SIRT2-p2270 / @ 10 μM. The protocol: This study tested the inhibitory activities of the synthesized compounds against recombinant human SIRT2 proteins using a fluorogenic substrate p2270(Ac-Glu-Thr-Asp-Lys(Dec)-AMC)-coupled trypsin assay. The assay buffer is 25 mM Tris–HCl pH 8.0, 150 mM NaCl, and 10% glycerol. The test compounds were added to 60 μL of reaction mixture containing SIRT2 enzymes (0.2 μM), and each compound was prepared in a 3-fold dilution series (300 μM–15 nM) with the final DMSO concentration < 1%. After incubation at 25 °C for 30 min, the reaction started by the addition of the substrate p2270 ([…]) and NAD^+([…]) at 25 °C. After 2 h, 50 μL 3~4 U/μL trypsin and 4 mM nicotinamide were added to terminate the reaction, followed by further incubation for 30 min at 25 °C. The fluorescence intensity was measured using a microplate reader (λex = 380 nm, λem = 460 nm). All determinations were performed in triplicate. The IC50 values were obtained using GraphPad Prism software as described previously. The enzyme activity assays were performed using a fluorogenic-based method, and Ac-Glu-Thr-Asp-Lys(Dec)-AMC, termed p2270, was used as the substrate. The SAR studies with all of the synthesized (5-phenylfuran-2-yl)methanamine derivatives (Table 1 and Table 2) were carried out. The compounds bearing various linkers or different substituents (A moiety) at 3- or 4-position of the [compound left out] of (5-phenylfuran-2-yl)methanamine scaffold (Table 1) were firstly investigated.

In test [2] the target is T1, human sirtuin 2 (SIRT2). As to the kind of experiment: fluorogenic p2270 trypsin-coupled assay, recombinant human SIRT2. It counts as biochemical. To be noted: read-out: Inhibition% ^1/SIRT2-p2270 / @ 100 μM.
Test [3] concerns the target T1, human sirtuin 2 (SIRT2). The test is described as above. In kind it is biochemical.

Regarding `N#C/C(=C\c1ccc(-c2cc(Cl)ccc2Cl)o1)C(=O)Nc1cccc2ncccc12` [AGK2], the inhibition at 10 µM at human sirtuin 2 (SIRT2) [1] turned out to be 30 ± 5%. Besides, the inhibition at 100 µM on human sirtuin 2 (SIRT2) [1] (read-out: Inhibition% ^1/SIRT2-p2270 / @ 100 μM) amounted to 80 ± 6%.
For `O=C(NCc1ccc(-c2cc(Cl)ccc2Cl)o1)Nc1cccc2ncccc12` [compound 12, 1-((5-(2,5-Dichlorophenyl)furan-2-yl)methyl)-3-(quinolin-5-yl)urea], the inhibition at 100 µM on human sirtuin 2 (SIRT2) [2] amounted to 60 ± 3%. For the same molecule, the inhibition at 10 µM at human sirtuin 2 (SIRT2) [1] was 33 ± 3%.
For the molecule `CCOC(=O)c1ccc(-c2ccc(CNC(=O)Nc3cccnc3)o2)cc1` [compound 17, Ethyl 4-(5-((3-(pyridin-3-yl)ureido)methyl)furan-2-yl)benzoate], the inhibition at 100 µM on human sirtuin 2 (SIRT2) [2] amounted to 50 ± 4%.
Same read-out and setting: next, `O=C(NCc1ccc(-c2ccc(C(F)(F)F)cc2)o1)Nc1cccnc1` [compound 18, 1-(Pyridin-3-yl)-3-((5-(4-(trifluoromethyl)phenyl)furan-2-yl)methyl)urea]: 40 ± 5%.
As to `O=C(NCc1ccc(-c2ccc(C(=O)O)cc2)o1)Nc1cccc2ncccc12` [compound 20, 4-(5-((3-(quinolin-5-yl)ureido)methyl)furan-2-yl)benzoic acid], at human sirtuin 2 (SIRT2) [2], the inhibition at 100 µM stood at 63 ± 5%. The inhibition at 10 µM at human sirtuin 2 (SIRT2) [1] came out at 35 ± 3%.
In the same order, the values of `O=C(NCc1ccc(-c2ccc(C(=O)O)cc2)o1)Nc1ccccc1` [compound 21, 4-(5-((3-Phenylureido)methyl)furan-2-yl)benzoic Acid] are 46 ± 4% and 33 ± 3%.
For `O=C(O)c1ccc(-c2ccc(CNC(=S)Nc3ccccc3)o2)cc1` [compound 22, 4-(5-((3-Phenylthioureido)methyl)furan-2-yl)benzoic Acid] the same measures were 44 ± 5% and 23 ± 3%.
Consider `O=C(NCc1ccc(-c2ccc(C(=O)O)c(O)c2)o1)Nc1ccccc1` [compound 24, 2-Hydroxy-4-(5-((3-phenylureido)methyl)furan-2-yl)benzoic Acid], for which the inhibition at 100 µM at human sirtuin 2 (SIRT2) [2] stood at 43 ± 2%.
In the case of `O=C(NCc1ccc(-c2ccc(C(=O)O)cc2)o1)Nc1cccnc1` [compound 25, 4-(5-((3-(Pyridin-3-yl)ureido)methyl)furan-2-yl)benzoic Acid], the IC50 at human sirtuin 2 (SIRT2) [3] is 2470 nM.
